According to patent US20240148741A1, “FORMULATION FOR ORAL ADMINISTRATION, COMPRISING TRIAZINE DERIVATIVE” (priority 2021, published 2024):

Experiment: Moisture sorption/desorption isotherm measurement (DVS)
Assay type: physicochemical
Conditions: for change in mass when the humidity was changed (DVS): 0% to 95% RH, 25° C.
Protocol: About 15 to 25 mg of a sample was weighed into a sample pan, and measurement was made. Measurement conditions are as follows. • Device: DVS Adventure manufactured by Surface Measurement Systems Ltd. • Measurement points: 0% to 95% RH every 5%, and 95% RH to 0% every 5% • Temperature: 25° C.
Regarding the comparison of the X-ray powder analysis patterns before and after the DVS measurement, measurement was performed by the following method.
• Measuring method: reflection method • Wavelength used: CuKα ray • Tube current: 200 mA • Tube voltage: 45 kV • Sampling plate: aluminum • X-ray incident angle: 2.5° • Sampling width: 0.02° • Detector: HyPix-3000 (two-dimensional detection mode)

Cn1cnc(Cn2c(=O)[nH]/c(=N\c3cc4cn(C)nc4cc3Cl)n(Cc3cc(F)c(F)cc3F)c2=O)n1
change in mass when the humidity was changed (DVS) (crystal of Example a (FIG. 6)): No substantial change in mass | change in mass when the humidity was changed (DVS) (crystal of Step 5-2 of Example 1b (FIG. 18)): No substantial change in mass | crystalline form before and after the DVS measurement (X-ray powder patterns) (crystal of Step 5-2 of Example 1b (FIG. 19)): did not change
